From patent US8609862B2, “Use of an adrenal hormone-modifying agent” (Novartis AG, priority 2010, dated 2013)

Columns and labels:
Human CYP11B1 = target: T1, Human CYP11B1 (Homo sapiens, UniProt P15538); experiment: In vitro human CYP11B1 assay; type: biochemical; settings: V79-4 cell homogenate, 11-deoxycortisol to cortisol, SPA
T1 construct: made in house; host or cells: V79-4 cell line #618 (stably selected with geneticin and hygromycin); sonicated homogenate, 500 x g supernatant
T1 sequence (P15538 25-503): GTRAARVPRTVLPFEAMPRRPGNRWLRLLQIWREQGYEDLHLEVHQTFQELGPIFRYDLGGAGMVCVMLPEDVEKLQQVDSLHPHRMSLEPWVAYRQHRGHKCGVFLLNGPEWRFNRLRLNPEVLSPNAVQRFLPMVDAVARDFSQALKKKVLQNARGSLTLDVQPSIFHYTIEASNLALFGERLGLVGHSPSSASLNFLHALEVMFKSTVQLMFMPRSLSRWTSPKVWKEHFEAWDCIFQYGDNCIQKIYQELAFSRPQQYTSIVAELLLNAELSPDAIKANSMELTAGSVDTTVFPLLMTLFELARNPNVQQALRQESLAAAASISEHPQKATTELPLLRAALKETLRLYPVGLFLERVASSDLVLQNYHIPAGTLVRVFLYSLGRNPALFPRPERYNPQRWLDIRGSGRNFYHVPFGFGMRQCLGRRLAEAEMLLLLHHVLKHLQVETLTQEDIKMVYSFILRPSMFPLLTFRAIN
Source text: Complete EDTA-free protease inhibitor tablets were obtained from Roche Applied Science (Indianapolis, Ind.). Dulbecco's modified Eagle medium (DMEM), antibiotic, geneticin, hygromycin, and fetal bovine serum (FBS) were products of Invitrogen (Carlsbad, Calif.). NADPH Regeneration Solution A and Solution B were purchased from BD Biosciences Clontech (Palo Alto, Calif.). Anti-mouse PVT SPA beads and [1,2,6,7-^3H(N)]hydrocortisone were acquired from Amersham (Piscataway, N.J.) and PerkinElmer (Boston, Mass.), respectively.
Following 4 days of growth, cells were washed once with PBS, scraped and collected in PBS, and centrifuged at 1,300 rpm for 6 min. […] The sonication procedure was repeated 3 more times, with a 5 min rest on ice between sonications. The sonicated material was then spun at 500×g for 4 min to remove unbroken cells. The supernatant was brought to a final glycerol concentration of 5%, flash-frozen in liquid nitrogen, and stored at −80° C.
The CYP11B1 assays were performed in 96-well U-bottom non-tissue-culture-treated plates. […] Plates were then centrifuged at 2,400 rpm for 6 min, and 50 μl of supernatant was removed for measurement of cortisol content by scintillation proximity assay (SPA). Measurement of cortisol was performed using a 96-well plate format. […] Anti-mouse PVT SPA beads (50 μl) were then added to each well and incubated overnight at room temperature prior to counting in a Microbeta plate counter. The amount of cortisol in each sample was calculated by comparing with a standard curve generated using known quantities of the hormone. Full concentration-response curves of an inhibitor were performed at least 3 times. The IC50 values were derived using a non-linear least squares curve-fitting program from IDBS XLfit.

CYP11B1 = target: T2, CYP11B1 (Rattus norvegicus, UniProt P15393); experiment: In vivo CYP11B1 assay: plasma corticosterone concentration (PCC) in ACTH-infused conscious rats; settings: ACTH infusion; for % Reduction from baseline PCC t = 1 h: 1 h after dosing; for % Reduction from baseline PCC 8 h: 8 h after dosing
T2 construct: from tissue; host or cells: whole animal: conscious male Sprague-Dawley rats under ACTH infusion (the adrenal gland as site of the enzyme comes from the background, b5)
T2 sequence (P15393 25-499): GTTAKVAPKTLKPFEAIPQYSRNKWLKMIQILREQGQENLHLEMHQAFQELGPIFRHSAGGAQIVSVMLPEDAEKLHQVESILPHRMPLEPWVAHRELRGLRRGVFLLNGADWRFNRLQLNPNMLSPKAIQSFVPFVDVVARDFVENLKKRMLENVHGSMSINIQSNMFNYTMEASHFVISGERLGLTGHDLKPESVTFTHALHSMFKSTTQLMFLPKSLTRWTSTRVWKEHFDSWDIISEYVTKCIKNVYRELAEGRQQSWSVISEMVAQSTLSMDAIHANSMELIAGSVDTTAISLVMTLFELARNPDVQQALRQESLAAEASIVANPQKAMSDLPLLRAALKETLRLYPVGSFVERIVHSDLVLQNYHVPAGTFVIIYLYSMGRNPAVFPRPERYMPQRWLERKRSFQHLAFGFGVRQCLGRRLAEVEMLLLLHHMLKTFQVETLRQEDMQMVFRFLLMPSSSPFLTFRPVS
Protocol: The in vivo effects of compounds on plasma aldosterone concentration (PAC) and plasma glucocorticoid (corticosterone) concentration (PCC) were evaluated in conscious rats.
Male Sprague-Dawley rats (˜400-600 g body weight) were surgically instrumented with a femoral arterial and venous catheter. The catheters were exteriorized from the lower back through a stainless steel spring and swivel system that enabled the rats to move freely at all times. Rats were allowed at least one week to recover from the surgery before initiating the experiments.
On the morning of the experiment, a pretreatment blood sample was collected on heparin from the arterial catheter. The blood samples were spun in a refrigerated centrifuge to generate plasma. The plasma was stored frozen at −70° C. until the later measurement of PAC and PCC (by radioimmunoassay). Adrenocorticotropic hormone (ACTH(1-24), referred to herein as ACTH) was then administered as an intravenous (i.v.) bolus (100 ng/kg) followed by a continuous i.v. infusion (30 ng/kg/min) for 9 hours. After one hour of infusion, a baseline (time 0) blood sample was withdrawn from the arterial catheter and processed and stored as described above. The rats were then dosed (typically 0.01 to 100 mg/kg) with the test compound p.o. by oral gavage or parenterally via the arterial catheter (i.a.). Compounds were formulated in an appropriate vehicle (e.g., water (p.o.) or saline (i.a.)) at a physiologically compatible volume (typically 1-2 ml/kg). Additional blood samples were withdrawn at 0.083 (i.a. only), 0.25, 0.5, 1, 2, 3, 4, 5, 6, 7, 8, and 24 hours after dosing with compound and processed and stored as above for later determination of PAC, PCC, and plasma compound concentration (by LC/MS/MS). Oral bioavailability and traditional pharmacokinetic (PK) parameters were estimated from the plasma compound concentrations.
Based on the plasma compound concentration at each dose, the PK/PD (pharmacodynamic) profiles (reduction of PAC and PCC) of each compound were determined.

| IC50 (Human CYP11B1) [nM] | % Reduction from baseline PCC t = 1 h (CYP11B1; 30 mg/kg i.a.) [%] | % Reduction from baseline PCC 8 h (CYP11B1; 30 mg/kg i.a.) [%] | % Reduction from baseline PCC t = 1 h (CYP11B1; 3 mg/kg i.a.) [%] | % Reduction from baseline PCC 8 h (CYP11B1; 3 mg/kg i.a.) [%] | % Reduction from baseline PCC t = 1 h (CYP11B1; 10 mg/kg p.o.) [%] | % Reduction from baseline PCC 8 h (CYP11B1; 10 mg/kg p.o.) [%] | Compound |
| --- | --- | --- | --- | --- | --- | --- | --- |
| 0.8 | 76 | 78 |  |  |  |  | COc1ccc(CN(C)C(=O)C2(c3ccc(C#N)cc3Cl)CCc3cncn32)cc1 (stereo not drawn) [5-(2-chloro-4-cyanophenyl)-N-(4-methoxybenzyl)-N-methyl-6,7-dihydro-5H-pyrrolo[1,2-c]imidazole-5-carboxamide] |
| 0.3 |  |  | 89 | 43 |  |  | N#Cc1ccc(C2CCCCc3cncn32)c(-c2ccc(F)cc2)c1 (single isomer, unassigned) [4′-fluoro-6-(6,7,8,9-tetrahydro-5H-imidazo[1,5-a]azepin-5-yl)biphenyl-3-carbonitrile] |
| 0.2 |  |  |  |  | 70 | 87 | N#Cc1ccc(C2CCCCc3cncn32)c(Br)c1 (racemic) [3-bromo-4-(6,7,8,9-tetrahydro-5H-imidazo[1,5-a]azepin-5-yl)benzonitrile racemate, 3-bromo-4-(6,7,8,9-tetrahydro-5H-imidazo[1,5-a]azepin-5-yl)benzonitrile] |
